From article PMC3235552, “Fragment library screening reveals remarkable similarities between the G protein-coupled receptor histamine H4 and the ion channel serotonin 5-HT3A” (Bioorganic & Medicinal Chemistry Letters, 2011)
Marks after values point to notes of the source that are not given here.

Tests used:
human H4R [1] = target: T1, human H4R (Homo sapiens, UniProt Q9H3N8); assay: H4R radioligand displacement of [3H]histamine, HEK293 membranes; type: binding; set-up: expressed in transfected cells; host or cells: HEK293T (main text: HEK293), transient transfection with polyethyleneimine; settings: for Affinity (pKi) H4R: displacement of [3H]histamine, membranes of HEK293 cells transiently expressing human H4R, mean ± SEM, at least three measurements, n.a. = non active
Description: For the H4R fragment screen a radioligand displacement study was performed at a 10 μM fragment concentration. Hits were assigned when the fragment displaced 50% or more of the radioligand, resulting in 56 hits (hit rate: 6%). Radioligand binding was measured by displacement of [^3H]histamine using membranes of HEK293 cells transiently expressing the human H4R.[17] For the hit compounds, affinities were determined by subsequent radioligand displacement studies.
The H4R radioligand displacement screen was performed on homogenized HEK293T cells transiently expressing the human H4R. To this end, cells were transfected with 1.25 µg H4R plasmid per million cells using the 25-kDa linear polyethyleneimine. Two days after transfection, cells were collected, washed in PBS, and stored as pellets at -20 °C. Pellets were dissolved in binding buffer and homogenized using a teflon/glass followed by sonification for 3s. Cell homogenates were incubated in 96 well plates with 10µM (final) fragment and 10nM [^3H]-histamine (13.4 Ci/mmol, Perkin Elmer) and for 1.5 hours at room temperature on a table shaker (750rpm). Incubations were terminated by rapid filtration through polyethyleneimene-coated GF/C (Perkin Elmer) filter plates. Bound radioactivity was quantified in a Wallac microbeta counter (Perkin Elmer).

human 5-HT3AR = target: T2, human 5-HT3AR (Homo sapiens, UniProt P46098); assay: 5-HT3AR radioligand displacement of [3H]granisetron, HEK293 membranes; type: binding; settings: for Affinity (pKi) 5-HT3AR: displacement of [3H]granisetron, membranes of HEK293 cells expressing human 5-HT3AR, mean ± SEM, at least two measurements, n.a. = non active
T2 construct: transfected with the human 5-HT3A subunit (PDB ID: P46098) in pcDNA3.1; expressed in transfected cells; cDNA in pcDNA3.1
T2 sequence (P46098 24-478): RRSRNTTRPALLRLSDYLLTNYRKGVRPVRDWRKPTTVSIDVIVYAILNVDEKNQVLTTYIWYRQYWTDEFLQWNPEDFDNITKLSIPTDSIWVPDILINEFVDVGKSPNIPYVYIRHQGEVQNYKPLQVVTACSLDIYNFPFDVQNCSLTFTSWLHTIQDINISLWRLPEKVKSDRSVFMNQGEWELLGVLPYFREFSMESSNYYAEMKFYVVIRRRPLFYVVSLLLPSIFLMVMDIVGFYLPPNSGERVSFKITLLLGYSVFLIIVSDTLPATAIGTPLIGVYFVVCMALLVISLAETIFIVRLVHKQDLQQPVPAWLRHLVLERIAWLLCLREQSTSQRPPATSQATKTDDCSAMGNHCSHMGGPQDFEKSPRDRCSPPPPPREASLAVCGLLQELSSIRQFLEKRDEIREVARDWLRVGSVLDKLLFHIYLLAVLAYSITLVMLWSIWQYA
Description: For the 5-HT3AR we performed a high throughput functional fragment screen[18] using a fluorescent readout (Flex Station) applying a fluorescent membrane potential dye. […] From this fragment screening we identified 70 hits for the 5-HT3A receptor (hit rate: 7%). Fragments were screened at a concentration of 100 μM using stably expressed human 5-HT3AR in HEK293 cells. Binding affinities of hits were determined using radioligand binding studies measuring [^3H]granisetron binding using membranes of HEK293 cells expressing the human 5-HT3AR.[18]
5-HT3AR were expressed in HEK293 cells transfected with the human 5-HT3A subunit ([…]: P46098) in pcDNA3.1 (Invitrogen Ltd., Paisley, UK). Stably expressing cells were clonally selected with the addition of the G-418 (Sigma Aldrich Company ltd., Dorset, UK). Cells were routinely grown in 90 mm culture dishes containing Dubelco’s Modified Eagle’s Medium DMEM / Glutamax (Gibco, Invitrogen Ltd.) and passaged when 90% confluency was reached.
[picture] For radioligand binding HEK293 cells at 90% confluency were scraped into 1 ml of ice-cold HEPES buffer (10 mM, pH 7.4) and frozen. After thawing, they were washed with HEPES buffer and homogenised using a fine-bore syringe. 50 µl of cell membranes were incubated in 0.5 ml HEPES buffer containing 0.7 nM [^3H]granisetron (~ Kd) and differing concentrations of the test compound. Competition binding (8 point) was performed on at least three separate plates of transfected cells. Non-specific binding was determined using 1 mM quipazine. Reactions were incubated for at least 24 h at 4°C, to allow compounds with slow kinetics to equilibrate. Incubations were terminated by vacuum filtration using a Brandel cell harvester (Alpha Biotech Ltd., London, UK) onto GF/B filters pre-soaked in 0.3 % polyethyleneimine. Radioactivity was determined by scintillation counting using a Beckman BCLS6500 (Fullerton, California, USA). Data were fit according to the equation:
where L is the concentration of ligand present; BL is the binding in the presence of ligand concentration L; Bmin is the binding when L = 0; Bmax is the binding when L=∞, L50 is the concentration of L which gives a binding equal to (Bmax + Bmin)/2; and nH is the Hill coefficient. Ki values were estimated from IC50 values using the Cheng-Prusoff equation^5
where Ki is the equilibrium dissociation constant for binding of the unlabeled antagonist, IC50 is the concentration of antagonist that blocks half the specific binding, [L] is the free concentration of radioligand and Kd is the equilibrium dissociation constant of the radioligand.

human H4R [2] = target: T1, human H4R; assay: H4R radioligand binding, membranes of SK-N-MC cells; set-up: expressed in transfected cells; settings: membranes of SK-N-MC cells transiently expressing human H4R; mean ± SEM, at least three measurements
H4R = target: H4R; set-up: method as in PMID 18983139, PMID 19413570; settings: Abbott H4R ligands; cited from earlier work

Row | Affinity (pKi) 5-HT3AR (human 5-HT3AR) | Structure (SMILES) | Affinity (pKi) H4R (human H4R [1]) | also measured
1 |  | c1cncc(Cc2c[nH]cn2)c1 [compound 1] | 7.0 ± 0.1 | 
2 |  | c1ccc(CNCCc2c[nH]cn2)cc1 [compound 2] | 6.2 ± 0.1 | 
3 |  | CN1CCN(c2cc(-c3ccccc3)ncn2)CC1 [compound 3] | 6.7 ± 0.0 | 
4 | 6.0 ± 0.0 | Nc1ccc2cc3ccccc3nc2c1 [compound 5] |  | 
5 | 6.1 ± 0.1 | N=C(N)NCCCc1ccccc1 [compound 6] |  | 
6 | 8.8 ± 0.1 | CN1CCC(=Cc2nc3cc(Cl)ccc3[nH]2)CC1 [compound 9] |  | selectivity for 5-HT3R over H4R (human 5-HT3AR; from affinities of Table 1): 500 fold; Affinity (pKi) H4R (human H4R [2]): 6.1 ± 0.1 ^b
7 | 5.9 ± 0.1 | CN1CCN(c2cc(-c3ccccc3)nc(N)n2)CC1 [compound 10] | 8.2 ± 0.1 | selectivity for H4R over 5-HT3R (human H4R [1]; from affinities of Table 1): 200 fold
8 | 5.9 ± 0.3 | c1nc(CC2CCCCC2)c[nH]1 [compound 11] |  | affinities for 5-HT3R and H4R compared (human 5-HT3AR; from affinities of Table 1): comparable affinities; Affinity (pKi) H4R (human H4R [2]): 6.2 ± 0.1 ^b
9 |  | Nc1nc2c(c(N3CCNCC3)n1)CCCc1ccccc1-2 [compound 13] |  | H4R pKi (H4R): 7.1

Row | Structure (SMILES) | Affinity (pKi) 5-HT3AR (human 5-HT3AR) | Affinity (pKi) H4R (human H4R [1]) | also measured
10 | Clc1ccc(C2CCNC2)cc1 (stereo not shown) [compound 4] | 6.1 ± 0.2 |  | 
11 | CN1CCN(c2ccc3cc(Cl)ccc3n2)CC1 [compound 7] | 6.6 ± 0.3 | 6.2 ± 0.0 | affinities for 5-HT3R and H4R compared (human 5-HT3AR; from affinities of Table 1): comparable affinities
12 | CN1CCN(c2nc3ccccc3nc2O)CC1 [compound 8] | 7.9 ± 0.3 | 7.2 ± 0.0 | affinities for 5-HT3R and H4R compared (human 5-HT3AR; from affinities of Table 1): comparable affinities
